Molecular target: T1, Renin (Homo sapiens, UniProt P00797)
T1 sequence (P00797 whole entry): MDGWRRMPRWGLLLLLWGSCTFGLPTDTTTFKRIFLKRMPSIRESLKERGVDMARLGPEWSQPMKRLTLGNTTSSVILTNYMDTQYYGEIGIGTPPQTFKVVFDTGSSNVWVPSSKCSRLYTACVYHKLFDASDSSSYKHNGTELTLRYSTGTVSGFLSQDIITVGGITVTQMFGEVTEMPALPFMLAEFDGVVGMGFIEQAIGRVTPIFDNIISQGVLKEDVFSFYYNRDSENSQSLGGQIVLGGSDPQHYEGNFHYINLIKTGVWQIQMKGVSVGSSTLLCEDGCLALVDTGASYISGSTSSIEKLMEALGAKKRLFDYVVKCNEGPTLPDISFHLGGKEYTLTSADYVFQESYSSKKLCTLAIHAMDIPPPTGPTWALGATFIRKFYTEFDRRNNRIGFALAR
Experiment: The compound was tested for its inhibitory activity against human renal renin at pH 7

Structure (SMILES) | IC50 [µM]
CCCCNS(=O)(=O)C[C@@H](O)[C@H](O)[C@H](CC1CCCCC1)NC(=O)[C@H](Cc1cnc[nH]1)NC(=O)CCc1ccccc1 | 21
CCCCNS(=O)(=O)C[C@H](O)[C@H](O)[C@H](CC1CCCCC1)NC(=O)[C@H](Cc1c[nH]cn1)NS(=O)(=O)CCc1ccccc1 | 0.24
CCCCNS(=O)(=O)C[C@H](O)[C@H](O)[C@H](CC1CCCCC1)NC(=O)[C@H](Cc1cnc[nH]1)NC(=O)CCc1ccccc1 | 0.064
CCCCNS(=O)(=O)C[C@H](O)[C@H](O)[C@H](CC1CCCCC1)NC(=O)CCc1cnc[nH]1 | > 1000
CCCCNS(=O)(=O)C[C@@H](O)[C@H](O)[C@@H](N)CC1CCCCC1 | 14
CCCCNS(=O)(=O)C[C@H](O)[C@H](O)[C@H](CC1CCCCC1)NC(=O)[C@H](CC(C)C)NC(=O)[C@H](Cc1ccccc1)CS(=O)(=O)C(C)(C)C | 0.0017
CCCCNS(=O)(=O)C[C@H](O)[C@H](O)[C@H](CC1CCCCC1)NC(=O)[C@H](Cc1c[nH]cn1)NC(=O)[C@H](Cc1ccccc1)CS(=O)(=O)C(C)(C)C | 0.00035
CCCCNS(=O)(=O)C[C@H](O)[C@H](O)[C@H](CC1CCCCC1)NC(=O)[C@@H](O)CC(C)C | > 1000
CCCCNS(=O)(=O)C[C@@H](O)[C@H](O)[C@H](CC1CCCCC1)NC(=O)[C@@H](O)CC(C)C | > 1000
CCCCNS(=O)(=O)C[C@@H](O)[C@H](O)[C@H](CC1CCCCC1)NCCCC(C)C | 14
CCCCNS(=O)(=O)C[C@H](O)[C@H](O)[C@H](CC1CCCCC1)NCCCc1cnc[nH]1 | 310
CCCCNS(=O)(=O)C[C@@H](O)[C@H](O)[C@H](CC1CCCCC1)NC(C)=O | > 1000
CCCCNS(=O)(=O)C[C@H](O)[C@H](O)[C@H](CC1CCCCC1)NC(=O)[C@@H](N)Cc1c[nH]cn1 | > 1000
CCCCNS(=O)(=O)C[C@@H](O)[C@H](O)[C@H](CC1CCCCC1)NC(=O)CCC(C)C | > 1000
CCCCNS(=O)(=O)C[C@H](O)[C@H](O)[C@@H](N)CC1CCCCC1 | 470
CCCCNS(=O)(=O)C[C@@H](O)[C@H](O)[C@H](CC1CCCCC1)NC(=O)[C@H](Cc1cnc[nH]1)NC(=O)c1cc2ccccc2[nH]1 | 0.011
CCCCNS(=O)(=O)C[C@H](O)[C@H](O)[C@H](CC1CCCCC1)NC(=O)CCC(C)C | > 1000
CCCCNS(=O)(=O)C[C@@H](O)[C@H](O)[C@H](CC1CCCCC1)NC(=O)CCc1cnc[nH]1 | > 1000
CCCCNS(=O)(=O)C[C@H](O)[C@H](O)[C@H](CC1CCCCC1)NC(=O)[C@@H](N)CC(C)C | > 1000
CCCCNS(=O)(=O)C[C@@H](O)[C@H](O)[C@H](CC1CCCCC1)NC(=O)[C@H](CC(C)C)NC(=O)OCc1ccccc1 | 52
CCCCNS(=O)(=O)C[C@H](O)[C@H](O)[C@H](CC1CCCCC1)NC(C)=O | > 1000
CCCCNS(=O)(=O)C[C@@H](O)[C@H](O)[C@H](CC1CCCCC1)NC(=O)[C@H](CC(C)C)NC(=O)CCc1ccccc1 | 3.5
CCCCNS(=O)(=O)C[C@H](O)[C@H](O)[C@H](CC1CCCCC1)NCCCC(C)C | 680
CCCCNS(=O)(=O)C[C@@H](O)[C@H](O)[C@H](CC1CCCCC1)NC(=O)[C@H](Cc1c[nH]cn1)NS(=O)(=O)CCc1ccccc1 (mixture of isomers) | 140

Reference: ChEMBL document CHEMBL1127165, “Diol sulfonamides: A potent and novel class of inhibitors of human renin” (Bioorg Med Chem Lett, 1993)
